From patent US20260034135A1, “USE OF N6-BENZYLAMINOPURINE AS AN APPETITE SUPPRESSANT” (THE GOVERNING COUNCIL OF THE UNIVERSITY OF TORONTO, priority 2022, published 2026)

How the values were obtained:
mHypoE-41 cell line = test: Gene expression by qRT-PCR in mHypoE-41 hypothalamic cell line; type: cell-based, mouse; conditions: 16 hr
Experimental: (§1) Hypothalamic neurons from embryonic and adult mice were previously immortalized to generate the clonal cell lines mHypoE-46, mHypoE-44, mHypoE-41, mHypoE-38, mHypoA-59, a FAC-sorted POMC/GFP mouse-derived cell line, mHypoA-POMC/GFP-2, and a mixed culture mHypoA-Bmal1-WT/F cell line (6, 13, 14). The mHypoE-46, mHypoE-44, and mHypoA-Bmal1-WT/F lines were cultured in DMEM containing 1000 mg/L glucose supplemented with 5% FBS and 1% pen/strep. The mHypoE-41, mHypoE-38, and mHypoA-59 cell lines were cultured in DMEM containing 4500 mg/L glucose supplemented with 2% FBS and 1% pen/strep. The mHypoA-POMC/GFP-2 line was cultured in DMEM containing 1000 mg/L glucose supplemented with 2% FBS and 1% pen/strep. All cells were maintained in 5% CO2 at 37° C. BAP was initially dissolved in DMSO solvent (vehicle control) to achieve 1000x the intended dose. The BAP solution was then diluted 1:1000 with the growth media used for the cell line. For co-treatment experiments, the vehicle control for ATP, UDP, and PKI was water, and for the H89 PKA inhibitor was DMSO. Neuropeptide gene expression levels were determined by qRT-PCR.
(§2) For cell culture experiments, total RNA was isolated using PureLink RNA isolation kit (Thermofisher Scientific, Burlington, ON, Canada) according to the manufacturer's instruction with on column DNase step (PureLink DNAse kit) or DNase I treatment to remove genomic DNA. For mouse experiments, total RNA was isolated using mirVana PARIS RNA and native protein isolation kit (Thermofisher Scientific). RNA quality and quantity were measured using Nanodrop 2000 and 500-1000 ng of complimentary DNA (cDNA) was synthesized with High Capacity cDNA Reverse Transcription kit (Applied biosystems, Thermofisher Scientific). Quantitative reverse transcription polymerase chain reaction (RT-qPCR) was performed with 12.5 ng of cDNA amplified with Platinum SYBR green qPCR SuperMix-UDG with ROX on an Applied Biosystems Prism 7900HT or PowerTrack Green Master Mix on an Applied Biosystems QuantStudio 5 and gene specific primers as per manufacturer's instructions (Table 1). Data was analyzed using […] and normalized to reference gene, either 60S ribosomal protein L7 (Rpl7) or Histone 3a (His).

mHypoE-46 cell line = test: RNA-sequencing (RNA-seq) of mHypoE-46 exposed to BAP; type: cell-based, mouse; conditions: 100 μM BAP
Experimental: To assess global mRNA gene expression changes, we exposed the mHypoE-46 line to 100 μM BAP for 4 and 16 h and assess mRNA expression via RNA-sequencing (RNA-seq). […] It is already known that a decrease in mTORC1 signaling results in a decrease in Npy through decreases in p70-S6K activity (18-20). […] Specifically, the gene expression of the upstream inhibitors of mTORC1, sestrin2 (Sesn2) (21) and tuberous sclerosis complex 2 (Tsc2) were both increased with BAP; whereas the gene expression of two downstream effectors inhibited by mTORC1, 4e-BP1 (Eif4ebp1) and ULK1 (Ulk1), were increased as well, indicating an overall negative regulation of mTORC1 activity (see FIG. 42A and 42B).

ERK1/2 = ERK1/2 (Thr202/Tyr204) phosphorylation by Western blot in mHypoE-46; type: cell-based, mouse; conditions: 100 μM BAP, 5 minutes
Experimental: mHypoE-46 cells were serum starved in 5.5 mM glucose (LG) DMEM for 1 hour prior to treatment with vehicle (0.1% DMSO), 100 µM BAP or H20, […] 5-Aminoimidazole-4-carboxamide ribonucleotide (AICAR) or 0 mM glucose DMEM. Protein was harvested using 1× cell lysis buffer (Cell Signaling Technologies, Inc, CST) containing protease and phosphatase inhibitors. A total of 30 μg protein was separated on a 12% SDS-polyacrylamide gels and transferred onto PVDF membranes. […] Protein density was quantified using ImageJ or the iBright Imaging System.
We also assessed the activity of another key signal transduction cascade, the MAPK ERK1/2 pathway. mHypoE-46 neurons were treated with 100 μM BAP and vehicle control for 5 minutes followed by protein isolation and Western blot analysis. The phosphorylation level of ERK1/2, one of the MAPK family members, was assessed.

B16 melanoma cells = conditions: protein kinase A-dependent manner; cited from earlier work
mHypoA-59 cell line = test: Gene expression by qRT-PCR in mHypoA-59 hypothalamic cell line; type: cell-based, mouse; conditions: 100 μM BAP, 16 hr
Experimental: as §1, §2

[1] = both 4 and 16 h, validated in mHypoE-46

## c1ccc(CNc2ncnc3nc[nH]c23)cc1 [BAP, N6-benzylaminopurine]
mHypoE-41 cell line; 100 μM BAP + 100 μM ATP
  Npy mRNA under co-treatment with ATP: unable to further induce Npy
mHypoE-41 cell line; 100 μM BAP
  Agrp mRNA expression: increased
  Npy mRNA expression: increased
mHypoE-41 cell line; dose curve, attenuated at 500 μM
  BAP dose with strongest Npy increase: 250 µM
mHypoE-41 cell line; increasing concentrations of BAP
  Npy expression, dose curve: increases the expression of Npy
mHypoE-46 cell line; 4 h
  4e-BPI (Eif4ebp I), RNA-seq data 4 h: ↑
  S6K (Rps6kbI), RNA-seq data 4 h: ns
  Sestrin2 (Sesn2), RNA-seq data 4 h: ↑
  TSC2 (Tsc2), RNA-seq data 4 h: ns
  ULK I (Ulk I), RNA-seq data 4 h: ns
mHypoE-46 cell line; 16 h
  4e-BPI (Eif4ebp I), RNA-seq data 16 h: ↑
  S6K (Rps6kbI), RNA-seq data 16 h: ↓
  Sestrin2 (Sesn2), RNA-seq data 16 h: ↑
  TSC2 (Tsc2), RNA-seq data 16 h: ↑
  ULK I (Ulk I), RNA-seq data 16 h: ↑
mHypoE-46 cell line; [1]
  early growth response protein 1 (Egr1) gene expression: highly downregulated
  early growth response protein 3 (Egr3) gene expression: highly downregulated
mHypoE-46 cell line; validated in mHypoE-46
  c-fos gene expression: significantly downregulated
  c-jun gene expression: significantly downregulated
ERK1/2
  ERK1/2 phosphorylation at Thr202/Tyr204: significantly decreased
B16 melanoma cells
  melanogenesis: induce melanogenesis
mHypoA-59 cell line
  Npy mRNA expression: no effect
  feeding neuropeptide expression (Npy, Agrp) in response to BAP: no changes in feeding neuropeptide expression
